Experimental data taken from publication PMC6704710, “Preclinical evaluation of 3D185, a novel potent inhibitor of FGFR1/2/3 and CSF-1R, in FGFR-dependent and macrophage-dominant cancer models” (Journal of Experimental & Clinical Cancer Research : CR, 2019).
Where two headings read alike, the source gives them in different places.

Columns and labels:
[1] = molecular target: T1, CDKL1(h) (Homo sapiens, UniProt Q00532); experiment: Eurofins kinase panel; assay type: biochemical; conditions: read-out: Inhibition rate (%)
T1 construct: purchased Eurofins (KinaseProfiler)
T1 sequence (Q00532 whole entry): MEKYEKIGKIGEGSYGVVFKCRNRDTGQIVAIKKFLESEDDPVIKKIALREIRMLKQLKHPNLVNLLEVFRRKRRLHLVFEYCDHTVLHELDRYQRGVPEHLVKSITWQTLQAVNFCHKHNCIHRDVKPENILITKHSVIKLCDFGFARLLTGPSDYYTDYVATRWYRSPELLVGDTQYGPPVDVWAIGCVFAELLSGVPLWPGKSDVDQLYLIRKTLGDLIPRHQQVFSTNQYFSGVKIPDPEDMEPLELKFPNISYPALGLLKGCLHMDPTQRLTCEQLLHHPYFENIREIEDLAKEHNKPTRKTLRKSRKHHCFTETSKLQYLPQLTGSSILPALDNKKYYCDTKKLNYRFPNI

[2] = molecular target: T2, PKR(h) (Homo sapiens, UniProt P19525); experiment: Eurofins kinase panel; assay type: biochemical; conditions: read-out: Inhibition rate (%)
T2 construct: purchased Eurofins (KinaseProfiler)
T2 sequence (P19525 whole entry): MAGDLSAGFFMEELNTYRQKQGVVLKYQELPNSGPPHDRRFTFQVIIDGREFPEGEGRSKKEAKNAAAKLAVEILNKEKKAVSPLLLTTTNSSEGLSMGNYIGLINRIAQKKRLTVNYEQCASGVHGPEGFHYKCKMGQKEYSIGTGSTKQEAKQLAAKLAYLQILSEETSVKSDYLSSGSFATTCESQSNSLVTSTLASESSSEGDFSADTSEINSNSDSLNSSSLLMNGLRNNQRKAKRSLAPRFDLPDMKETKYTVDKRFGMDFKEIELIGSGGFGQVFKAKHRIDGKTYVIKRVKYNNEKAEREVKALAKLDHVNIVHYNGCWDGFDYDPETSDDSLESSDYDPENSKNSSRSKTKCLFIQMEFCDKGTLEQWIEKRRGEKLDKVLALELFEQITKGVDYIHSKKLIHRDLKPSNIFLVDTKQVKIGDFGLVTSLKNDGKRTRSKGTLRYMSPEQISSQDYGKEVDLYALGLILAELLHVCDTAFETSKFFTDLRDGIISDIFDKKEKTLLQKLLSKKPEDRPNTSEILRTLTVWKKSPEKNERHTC

[3] = molecular target: T3, PKCμ(h) (Homo sapiens, UniProt Q15139); experiment: Eurofins kinase panel; assay type: biochemical; conditions: read-out: Inhibition rate (%)
T3 construct: purchased Eurofins (KinaseProfiler)
T3 sequence (Q15139 1-912): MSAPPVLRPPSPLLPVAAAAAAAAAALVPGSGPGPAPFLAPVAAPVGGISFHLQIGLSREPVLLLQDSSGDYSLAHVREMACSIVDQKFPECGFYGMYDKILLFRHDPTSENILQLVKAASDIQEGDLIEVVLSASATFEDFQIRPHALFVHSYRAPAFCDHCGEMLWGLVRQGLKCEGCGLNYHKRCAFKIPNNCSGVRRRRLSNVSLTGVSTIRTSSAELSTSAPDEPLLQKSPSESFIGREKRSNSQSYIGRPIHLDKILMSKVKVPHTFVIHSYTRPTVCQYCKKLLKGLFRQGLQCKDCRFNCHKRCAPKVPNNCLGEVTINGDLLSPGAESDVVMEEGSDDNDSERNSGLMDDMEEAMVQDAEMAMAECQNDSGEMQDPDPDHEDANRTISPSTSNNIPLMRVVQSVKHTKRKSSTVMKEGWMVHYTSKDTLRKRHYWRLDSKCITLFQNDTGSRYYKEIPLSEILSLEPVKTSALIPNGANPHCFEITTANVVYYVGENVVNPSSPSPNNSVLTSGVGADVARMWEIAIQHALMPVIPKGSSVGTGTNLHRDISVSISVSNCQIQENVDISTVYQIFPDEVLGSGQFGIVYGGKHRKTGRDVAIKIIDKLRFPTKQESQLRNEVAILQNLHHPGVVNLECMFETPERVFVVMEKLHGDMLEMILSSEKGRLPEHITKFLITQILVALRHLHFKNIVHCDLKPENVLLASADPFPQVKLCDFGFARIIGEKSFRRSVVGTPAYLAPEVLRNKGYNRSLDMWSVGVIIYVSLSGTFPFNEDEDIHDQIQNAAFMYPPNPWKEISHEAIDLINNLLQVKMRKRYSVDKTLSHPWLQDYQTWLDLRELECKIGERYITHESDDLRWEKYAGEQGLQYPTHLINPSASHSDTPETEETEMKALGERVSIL

[4] = test system: 11 FGFR- or CSF-1R-dependent cancer cell lines; experiment: Cell proliferation assay, sensitive panel; assay type: cell-based
Description: (§1) The cancer cell lines indicated in Figure 3 were seeded in 96-well plates at a low density in growth medium. The next day, appropriate controls or the designated concentrations of the compounds were added to each well, and the cells were incubated for 72 h. HUVECs (passage 3) were seeded in 96-well plates in growth medium overnight and transferred to serum-free medium for 24 h. The following day, appropriate controls or the designated concentrations of the compounds were added to each well, and 100 ng/mL growth factor (bFGF or VEGF) was added to the indicated wells. The cells were incubated for 48 h. Finally, cell proliferation was determined using a sulforhodamine B (SRB) assay or a cell counting kit-8 (CCK-8) assay. […] IC50 values for proliferation curves were calculated using a 4-parameter logistic nonlinear regression model with SoftMax Pro Software (Molecular Devices, San Jose, USA).

[5] = molecular target: T4, PASK(h) (Homo sapiens, UniProt Q96RG2); experiment: Eurofins kinase panel; assay type: biochemical; conditions: read-out: Inhibition rate (%)
T4 construct: purchased Eurofins (KinaseProfiler)
T4 sequence (Q96RG2 whole entry): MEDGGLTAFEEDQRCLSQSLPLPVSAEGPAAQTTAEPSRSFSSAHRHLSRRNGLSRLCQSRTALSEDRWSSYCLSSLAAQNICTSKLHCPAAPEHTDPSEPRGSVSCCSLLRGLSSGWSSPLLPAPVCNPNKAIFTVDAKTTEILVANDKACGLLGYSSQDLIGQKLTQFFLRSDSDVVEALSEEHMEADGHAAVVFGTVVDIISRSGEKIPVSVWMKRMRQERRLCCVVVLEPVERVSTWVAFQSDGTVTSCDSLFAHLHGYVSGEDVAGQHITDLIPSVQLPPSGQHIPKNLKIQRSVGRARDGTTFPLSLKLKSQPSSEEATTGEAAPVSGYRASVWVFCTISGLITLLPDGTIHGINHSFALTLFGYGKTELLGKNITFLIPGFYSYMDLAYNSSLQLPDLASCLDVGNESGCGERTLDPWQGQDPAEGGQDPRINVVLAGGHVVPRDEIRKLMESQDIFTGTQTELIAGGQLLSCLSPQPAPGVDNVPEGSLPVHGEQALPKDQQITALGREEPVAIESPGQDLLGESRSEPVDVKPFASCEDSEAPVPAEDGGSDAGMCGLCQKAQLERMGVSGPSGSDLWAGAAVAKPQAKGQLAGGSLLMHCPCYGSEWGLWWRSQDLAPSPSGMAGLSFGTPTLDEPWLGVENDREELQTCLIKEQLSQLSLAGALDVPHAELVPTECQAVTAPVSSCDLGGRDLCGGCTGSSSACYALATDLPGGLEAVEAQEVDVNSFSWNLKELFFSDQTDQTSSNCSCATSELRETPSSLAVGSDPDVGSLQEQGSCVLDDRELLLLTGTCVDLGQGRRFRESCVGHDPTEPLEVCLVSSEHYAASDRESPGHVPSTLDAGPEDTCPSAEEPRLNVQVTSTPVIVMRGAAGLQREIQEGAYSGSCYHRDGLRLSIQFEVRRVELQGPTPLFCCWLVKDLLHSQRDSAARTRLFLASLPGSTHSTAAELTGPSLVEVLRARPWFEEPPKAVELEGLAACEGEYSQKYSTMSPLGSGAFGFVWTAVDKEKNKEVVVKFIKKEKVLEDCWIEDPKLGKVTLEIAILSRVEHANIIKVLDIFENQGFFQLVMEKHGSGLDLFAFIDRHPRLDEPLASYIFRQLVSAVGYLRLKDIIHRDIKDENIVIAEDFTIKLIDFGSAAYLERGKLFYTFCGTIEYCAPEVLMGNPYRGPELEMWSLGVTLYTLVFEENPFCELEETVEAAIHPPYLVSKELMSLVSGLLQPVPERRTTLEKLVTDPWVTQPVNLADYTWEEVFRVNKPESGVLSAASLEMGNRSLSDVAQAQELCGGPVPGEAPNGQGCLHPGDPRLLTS

[6] = test system: NCI-H716; experiment: Cell proliferation assay; assay type: cell-based, human; conditions: Homo sapiens, NCI-H716; 72 h, mean ± SD
Description: as §1

[7] = test system: HUH7; experiment: Cell proliferation assay; assay type: cell-based, human; conditions: Homo sapiens, Huh-7; 72 h, mean ± SD
Description: as §1

[8] = test system: OPM2; experiment: Cell proliferation assay; assay type: cell-based, human; conditions: Homo sapiens, OPM-2; 72 h, mean ± SD
Description: as §1

[9] = test system: KG-1; experiment: Cell proliferation assay; assay type: cell-based, human; conditions: Homo sapiens, KG-1; 72 h, mean ± SD
Description: as §1

[10] = test system: KATOIII; experiment: Cell proliferation assay; assay type: cell-based, human; conditions: Homo sapiens, KATO III; 72 h, mean ± SD
Description: as §1

[11] = test system: RT112; experiment: Cell proliferation assay; assay type: cell-based, human; conditions: Homo sapiens, RT-112; 72 h, mean ± SD
Description: as §1

[12] = test system: NCI-H1581; experiment: Cell proliferation assay; assay type: cell-based, human; conditions: Homo sapiens, NCI-H1581; 72 h, mean ± SD
Description: as §1

[13] = test system: SNU16; experiment: Cell proliferation assay; assay type: cell-based, human; conditions: Homo sapiens, SNU-16; 72 h, mean ± SD
Description: as §1

[14] = test system: SUM52PE; experiment: Cell proliferation assay; assay type: cell-based, human; conditions: Homo sapiens, SUM52PE; 72 h, mean ± SD
Description: as §1

[15] = test system: UMUC14; experiment: Cell proliferation assay; assay type: cell-based, human; conditions: Homo sapiens, UMUC14; 72 h, mean ± SD
Description: as §1

[16] = molecular target: T5, GSK3β(h) (Homo sapiens, UniProt P49841); experiment: Eurofins kinase panel; assay type: biochemical; conditions: read-out: Inhibition rate (%)
T5 construct: purchased Eurofins (KinaseProfiler)
T5 sequence (P49841 whole entry): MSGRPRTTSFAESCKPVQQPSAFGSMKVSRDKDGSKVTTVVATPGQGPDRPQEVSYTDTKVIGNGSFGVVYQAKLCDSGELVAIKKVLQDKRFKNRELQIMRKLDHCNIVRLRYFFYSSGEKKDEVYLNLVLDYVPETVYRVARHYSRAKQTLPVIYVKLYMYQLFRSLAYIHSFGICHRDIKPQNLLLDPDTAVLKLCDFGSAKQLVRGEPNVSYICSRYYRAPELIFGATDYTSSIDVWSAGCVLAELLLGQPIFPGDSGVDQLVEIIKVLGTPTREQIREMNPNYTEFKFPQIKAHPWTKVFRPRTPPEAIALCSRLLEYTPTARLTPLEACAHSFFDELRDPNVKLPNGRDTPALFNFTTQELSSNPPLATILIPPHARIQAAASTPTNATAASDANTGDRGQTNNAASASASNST

[17] = molecular target: T6, Snk(h) (Homo sapiens, UniProt Q9NYY3); experiment: Eurofins kinase panel; assay type: biochemical; conditions: read-out: Inhibition rate (%)
T6 construct: purchased Eurofins (KinaseProfiler)
T6 sequence (Q9NYY3 whole entry): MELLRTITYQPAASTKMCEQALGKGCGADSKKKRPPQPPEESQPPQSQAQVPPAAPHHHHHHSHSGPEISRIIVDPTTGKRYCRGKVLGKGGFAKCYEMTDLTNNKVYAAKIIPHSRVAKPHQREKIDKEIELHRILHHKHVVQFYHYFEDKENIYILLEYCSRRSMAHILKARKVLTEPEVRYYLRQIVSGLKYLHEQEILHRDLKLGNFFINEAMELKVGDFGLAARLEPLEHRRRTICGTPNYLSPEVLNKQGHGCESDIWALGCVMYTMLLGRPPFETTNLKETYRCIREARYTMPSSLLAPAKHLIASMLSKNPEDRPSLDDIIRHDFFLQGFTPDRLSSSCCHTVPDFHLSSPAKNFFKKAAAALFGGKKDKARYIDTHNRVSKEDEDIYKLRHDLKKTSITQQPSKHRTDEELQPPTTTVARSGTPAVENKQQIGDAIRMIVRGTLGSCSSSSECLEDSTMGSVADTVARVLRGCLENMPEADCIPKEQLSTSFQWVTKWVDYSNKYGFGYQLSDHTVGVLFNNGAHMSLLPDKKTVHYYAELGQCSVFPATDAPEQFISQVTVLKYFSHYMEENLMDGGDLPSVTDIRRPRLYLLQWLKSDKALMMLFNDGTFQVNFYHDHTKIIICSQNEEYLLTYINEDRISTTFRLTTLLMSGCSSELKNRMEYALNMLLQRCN

## COc1cc(OC)c(Cl)c(-c2ccc3c(NC(=O)c4ccc(N5CCNC(C)(C)C5)cc4)n[nH]c3n2)c1Cl [3D185]
[1]; 10 nM
  inhibition at 0.01 µM: 3%
[1]; 100 nM
  inhibition at 0.1 µM: -5%
[1]; 1000 nM
  inhibition at 1 µM: 0%
[2]; 10 nM
  inhibition at 0.01 µM: -4%
[2]; 100 nM
  inhibition at 0.1 µM: -3%
[2]; 1000 nM
  inhibition at 1 µM: 0%
[3]; 10 nM
  inhibition at 0.01 µM: -2%
[3]; 100 nM
  inhibition at 0.1 µM: 2%
[3]; 1000 nM
  inhibition at 1 µM: 11%
[4]; FGFR1-, FGFR2-, FGFR3- and CSF-1R-mediated proliferation, read-out: IC50 values, range over cell lines
  IC50: 0.9 to 36.8 nM
[4]; mean over CSF-1R dependent and FGFRs dependent lines, read-out: Mean IC50
  IC50: 17.3 nM
[5]; 10 nM
  inhibition at 0.01 µM: -15%
[5]; 100 nM
  inhibition at 0.1 µM: 1%
[5]; 1000 nM
  inhibition at 1 µM: 10%
[6]
  IC50: 3 ± 0.4 nM
[7]
  IC50: 49.8 ± 1.5 nM
[8]
  IC50: 19.2 ± 4.3 nM
[9]
  IC50: 2 ± 0.4 nM
[10]
  IC50: 11.3 ± 0.2 nM
[11]
  IC50: 36.8 ± 6.8 nM
[12]
  IC50: 17.3 ± 5.7 nM
[13]
  IC50: 0.9 ± 0.1 nM
[14]
  IC50: 2 nM
[15]
  IC50: 30.9 ± 5.3 nM
[16]; 10 nM
  inhibition at 0.01 µM: 0%
[16]; 100 nM
  inhibition at 0.1 µM: 5%
[16]; 1000 nM
  inhibition at 1 µM: -5%
[17]; 10 nM
  inhibition at 0.01 µM: 0%
[17]; 100 nM
  inhibition at 0.1 µM: -2%
[17]; 1000 nM
  inhibition at 1 µM: 10%
